Assay results reported in US10968214B2, “KRas G12C inhibitors” (Eli Lilly and Company, priority 2018, dated 2021).
Where two headings read alike, the source gives them in different places.

Assays:
SW1573 = experiment: Combination 4 day growth assay (Cell TiterGlo), SW1573; format: cell-based; details: Homo sapiens, 96 h, single treatment, read-out: Absolute IC50
Method: (§1) Cell lines for this study are obtained from ATCC and grown under ATCC recommended conditions, except for LXFA-983L, which is obtained from Oncotest/Charles Rivers Laboratories, Wilmington, Mass. and D122-96, which is obtained from L. Eisenbach (Weizman Institute of Science, Rehovot, Israel)—both grown under recommended conditions. […] The proliferation assay is performed as a 4 day growth assay using Cell TiterGlo® as the readout. Briefly, cells are plated in 96-well cell culture plates and allowed to adhere overnight at 37° C. The following day, cells are treated with compounds, either single treatments or combination treatments. First, the testing compounds are serially diluted in DMSO, followed by dilution into media as a 5× concentration with 1% DMSO, and finally added to cells in media to dilute to 1×. The cells are incubated at 37° C. for 4 more days. At the end of the incubation period, Cell TiterGlo® reagent is mixed and added to the wells. After 10 minutes, the luminescence is read by a Perkin Elmer Envision instrument. Absolute IC50 values generated by a 4-parameter logistics model for the single and combination treatments are generated, followed by combination indexes for each combination treatment and cell line. The combination IC50 values are adjusted based on the total concentration of each compound when added together. […] The combination index (CI) measures the degree to which the potency of a combination therapy differs from the expected-if-additive potency and is based on the Loewe definition of additivity.
(§2) [formula] Where • CAy and CBy are the concentrations of therapies A and B that produce an effect, y, when given in combination • ICAy and ICBy are the concentrations of A and B that produce an effect, y, when given individually The biological interpretation of the combination index is as follows: synergistic if the combination index <0.5, additive if the combination index is between 0.5 and 2, and antagonistic if the combination index is >2.

SW1463 xenograft = experiment: Anti-tumor growth activity, SW1463 colorectal xenograft; format: in vivo; details: for Tumor Growth Inhibition (%) or Regression (−%): 28 Day, negative = regression
H23 = experiment: Combination 4 day growth assay (Cell TiterGlo), H23; format: cell-based; details: Homo sapiens, NCI-H23, 96 h, single treatment, read-out: Absolute IC50
Method: as §1, §2

H2122 = experiment: Combination 4 day growth assay (Cell TiterGlo), H2122; format: cell-based; details: Homo sapiens, NCI-H2122, 96 h, single treatment, read-out: Absolute IC50
Method: as §1, §2

LU-99 = experiment: CellTiterGlo Cell Proliferation Assay, LU-99; format: cell-based; details: Homo sapiens, KRas G12C, Lung, 96 hr
Method: (§3) A panel of tumor cell lines harboring KRas G12C or other KRas mutations are collected (Table 6). All cell lines are from ATCC or other sources indicated.
(§4) Typically cells are cultured in RPMI1640 or Dulbecco's modified Eagle's medium (DMEM, GIBCO) supplemented with 10% FBS (GIBCO, Invitrogen). For 2D culture cells (4×10^3/well) maintained in growth medium described above, are plated onto 96 well tissue culture plates Corning® Cat. 3603) a day before the treatment. For 3D culture 8000 cells/well are seeded onto 96 well ultra-low attachment tissue culture plates (Corning, #3474). The cells are treated compound for 96 hr, and then are analyzed for viability using the CellTiterGlo® Luminescent Cell Viability Assay® (Promega #G7572 for 2D and Promega #G9683 for 3D cultures) according to manufacturer's instructions and an EnVision™ plate reader. Nonlinear regression and sigmoidal dose-response curves are used to calculate the half maximal inhibitory concentration (IC50) with GraphPad Prism 4® software.

HCC-44 = experiment: CellTiterGlo Cell Proliferation Assay, HCC-44; format: cell-based; details: Homo sapiens, HCC44, KRas G12C, Lung, 96 hr, read-out: IC50 (μM) in 2 D cell proliferation
Method: as §3, §4

IC50 (SW1573): > 10000 nM
IC50 (H2122): 2870 nM
IC50 (HCC-44): 0.221 µM
SMILES: C=CC(=O)N1CCN(c2ncnc3c(F)c(-c4ccc(F)c5sc(N)nc45)c(Cl)cc23)CC1 [Example 1, 1-{4-[7-(2-Amino-7-fluoro-1,3-benzothiazol-4-yl)-6-chloro-8-fluoroquinazolin-4-yl]piperazin-1-yl}prop-2-en-1-one]
Tumor Growth Inhibition (%) or Regression (−%) (SW1463 xenograft; 15 mg/kg BID): −27%
Tumor Growth Inhibition (%) or Regression (−%) (SW1463 xenograft; 30 mg/kg BID): −47.9%
Tumor Growth Inhibition (%) or Regression (−%) (SW1463 xenograft; 30 mg/kg QD): −13.9%
In Vivo Anti-Tumor Activities (SW1463 xenograft; Example 1 30 mg/kg QDx28): −21.4
IC50 (H23): 235 nM
IC50 (LU-99; read-out: IC50 (μM) in 2 D cell proliferation): 1.57 µM
IC50 (LU-99; read-out: IC50 (μM) in 3 D spheroid cell proliferation): 0.659 µM
